This note sets out measurements from patent publication US10683278B2 (JINAN UNIVERSITY, priority 2015, dated 2020).

One experiment concerns the target T1, AXL kinase (Homo sapiens, UniProt P30530).
T1 construct: purchased Invitrogen PV4803
T1 sequence (P30530 26-894): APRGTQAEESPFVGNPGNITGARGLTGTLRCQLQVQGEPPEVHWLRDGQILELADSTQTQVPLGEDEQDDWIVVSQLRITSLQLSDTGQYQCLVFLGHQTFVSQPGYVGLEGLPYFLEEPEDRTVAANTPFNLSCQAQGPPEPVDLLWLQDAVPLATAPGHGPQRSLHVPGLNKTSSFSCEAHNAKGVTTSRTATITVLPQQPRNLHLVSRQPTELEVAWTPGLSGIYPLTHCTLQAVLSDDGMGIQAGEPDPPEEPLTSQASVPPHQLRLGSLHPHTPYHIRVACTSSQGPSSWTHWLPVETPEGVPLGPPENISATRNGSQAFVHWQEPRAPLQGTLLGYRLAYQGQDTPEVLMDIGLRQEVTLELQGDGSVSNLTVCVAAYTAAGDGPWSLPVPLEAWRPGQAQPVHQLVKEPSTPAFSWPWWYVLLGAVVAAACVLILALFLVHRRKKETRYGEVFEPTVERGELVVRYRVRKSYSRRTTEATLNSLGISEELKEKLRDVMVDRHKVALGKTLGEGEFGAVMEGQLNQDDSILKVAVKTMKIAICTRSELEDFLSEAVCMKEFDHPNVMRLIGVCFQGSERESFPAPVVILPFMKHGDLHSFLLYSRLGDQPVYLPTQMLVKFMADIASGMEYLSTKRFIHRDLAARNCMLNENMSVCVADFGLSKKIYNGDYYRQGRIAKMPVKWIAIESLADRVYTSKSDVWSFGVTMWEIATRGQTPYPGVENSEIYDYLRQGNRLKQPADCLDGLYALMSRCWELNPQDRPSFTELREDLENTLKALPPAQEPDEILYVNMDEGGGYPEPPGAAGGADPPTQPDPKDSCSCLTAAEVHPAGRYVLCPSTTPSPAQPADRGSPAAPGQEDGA
As to the kind of experiment: IC50 test on AXL kinase (Z′-LYTE FRET kinase activity detection). Type of experiment: biochemical. As to conditions: for IC50: Z′-LYTE FRET peptide assay, 1 h reaction. The gist of the method: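 AXL kinase with Z′-LYTE Tyr 2 FRET peptide, ATP and graded compound concentrations reacted 1 h, then site-specific protease cleaved non-phosphorylated peptide for 1 h. Emission at 445 and 520 nm with 400 nm excitation gave the IC50.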

Experiment [1] has as its target T2, FLT-3 kinase domain recombinant protein (Homo sapiens, UniProt P36888).
T2 construct: 50 μL FLT-3 kinase domain recombinant protein diluted with reaction buffer to initiate the reaction
T2 sequence (P36888 610-943 limits assumed): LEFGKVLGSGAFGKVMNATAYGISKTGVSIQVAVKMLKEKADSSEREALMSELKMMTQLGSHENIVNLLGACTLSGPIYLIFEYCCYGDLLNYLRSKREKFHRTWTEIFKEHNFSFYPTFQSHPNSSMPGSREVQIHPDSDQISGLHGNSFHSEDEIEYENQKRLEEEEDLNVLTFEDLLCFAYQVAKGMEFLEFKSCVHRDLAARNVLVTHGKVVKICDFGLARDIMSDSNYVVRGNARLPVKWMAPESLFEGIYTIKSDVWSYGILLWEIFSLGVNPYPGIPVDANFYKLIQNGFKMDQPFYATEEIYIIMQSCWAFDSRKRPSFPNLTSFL
Put plainly: Inhibition rate on FLT3 kinase (ELISA). Format: biochemical. As to conditions: two values per compound; for inhibition at 0.01 µM / inhibition at 0.1 µM / inhibition at 1 µM: read-out: Inhibition rate (%) against receptor tyrosine kinase FLT-3. As to the method:
Conventional enzyme-linked immunosorbent assay (ELISA) method is used, and the specific steps are as follows
12,000 g of compounds were centrifuged for 5 min, DMSO was added to make a 10^−2M stock solution, vortexed uniformly and sonicated for 10 min for standby application, and stored at −40° C. The compounds were diluted from the stock solution with DMSO to 100 times the concentration to be tested (concentration of DMSO in the system being 1%) during the test.
1. The enzyme reaction substrate Poly (Glu, Tyr) 4:1 was diluted to 20 μg/mL with potassium-free PBS (10 mM sodium phosphate buffer, 150 mM NaCl, pH 7.2-7.4), the ELISA plate was coated with same in 125 μL/well, and reacted at 37° C. for 12-16 hours, the liquid in wells was discarded, the plate was washed three times, for 5 minutes each time, with T-PBS (potassium-free PBS with 0.1% Tween-20, 200 μL/well), and the ELISA plate was dried in an oven at 37° C. for 1-2 hours.
2. To each well were added 49 μL of ATP solution diluted with reaction buffer (50 mM HEPES pH 7.4, 50 mM MgCl2, 0.5 mM MnCl2, 0.2 mM Na3VO4, 1 mM DTT), 1 μL of compounds to be tested, and 50 μL FLT-3 kinase domain recombinant protein diluted with reaction buffer to initiate the reaction (two ATP-free control wells are required for each experiment). Subject to a shaker (100 rpm) at 37° C. and reacted for 1 hour. The liquid in wells was discarded, and the plate was washed three times with T-PBS.
3. Antibody PY99 diluent (the antibody was diluted in 1:500 with T-PBS which contains 5 mg/mL BSA) was added in 100 μL/well, subjected same to a shaker at 37° C. and reacted for 0.5 hour. The liquid in wells was discarded, and the plate was washed three times with T-PBS.
4. Horseradish peroxidase labeled goat anti-mouse secondary antibody diluent (the antibody was diluted in 1:2000 with T-PBS which contains 5 mg/ml BSA) was added in 100 μL/well, subjected same to a shaker at 37° C. and reacted for 0.5 hour. The liquid in wells was discarded, and the plate was washed three times with T-PBS.
5. 2 mg/ml of OPD developing solution (diluted with 0.1 M citric acid-sodium citrate buffer which contains 0.03% H2O2 (pH=5.4)) was added in 100 μL/well, and reacted at 25° C. in the dark for 1-10 minutes.
6. 2 M H2SO4 was added in 50 μL/well to stop the reaction, and the reading from the wavelength-adjustable microwell plate ELIASA VERSAmax was performed with a wavelength of 490 nm.

`Cc1c(C(=O)Nc2ccc(Oc3ncnc4[nH]cc(-c5ccccc5)c34)c(F)c2)c(=O)c2cc(C(F)(F)F)ccc2n1C` [TL50121, N-(3-fluoro-4-((5-phenyl-7H-pyrrolo[2,3-d]pyrimidin-4-yl)oxy)phenyl)-1,2-dimethyl-4-oxo-6-(trifluoromethyl)-1,4-dihydroquinoline-3-carboxamide] registered an IC50 against AXL kinase of 153 nM. In addition, the “Inhibition rate (%) against receptor tyrosine kinase FLT-3” value (from here on “Inhibition rate (%)”) came out at 61.6% in experiment [1] (compound 10 nM, 0.01 µM); 63.3% in experiment [1] (compound 100 nM, 0.1 µM); 77.6% in experiment [1] (compound 1000 nM, 1 µM). Also, in experiment [1] (compound 10 nM), the inhibition at 0.01 µM was 58.2%. In experiment [1] (compound 100 nM), the inhibition at 0.1 µM came out at 66.7%. Moreover, the inhibition at 1 µM in experiment [1] (compound 1000 nM) stood at 84.4%.

Turning to `Cc1c(C(=O)Nc2ccc(Oc3ncnc4[nH]cc(-c5ccccc5)c34)c(F)c2)c(=O)c2cc(C(C)C)ccc2n1C` [TL50172, N-(3-fluoro-4-(5-phenyl-7H-pyrrolo[2,3-d]pyrimidin-4-yloxy)phenyl)-6-isopropyl-1,2-dimethyl-4-oxo-1,4-dihydroquinoline-3-carboxamide], half-maximal inhibition against AXL kinase (IC50) was put at 26 nM. The “Inhibition rate (%)” value in experiment [1] (compound 10 nM, 0.01 µM) worked out at 54.2%; in experiment [1] (compound 100 nM, 0.1 µM), 72.9%; in experiment [1] (compound 1000 nM, 1 µM), 84.6%. For the same compound, the inhibition at 0.01 µM in experiment [1] (compound 10 nM) is 59.4%. Also, in experiment [1] (compound 100 nM), the inhibition at 0.1 µM came to 62.6%. Besides, the inhibition at 1 µM in experiment [1] (compound 1000 nM) came to 81.8%.

On to `Cc1c(C(=O)Nc2ccc(Oc3ncnc4[nH]cc(-c5ccccc5)c34)c(F)c2)c(=O)c2cc(C(C)(C)C)ccc2n1C` [TL4800062, 6-(tert-butyl)-N-(3-fluoro-4-((5-phenyl-7H-pyrrolo[2,3-d]pyrimidin-4-yl)oxy)phenyl)-1,2-dimethyl-4-oxo-1,4-dihydroquinoline-3-carboxamide], for which the midpoint of inhibition against AXL kinase, the IC50, lay at 42 nM. In addition, the “Inhibition rate (%)” value in experiment [1] (compound 10 nM, 0.01 µM) stood at 44.9%; in experiment [1] (compound 100 nM, 0.1 µM), 65.8%; in experiment [1] (compound 1000 nM, 1 µM), 79.1%. Moreover, the inhibition at 0.01 µM in experiment [1] (compound 10 nM) amounted to 40.5%. Besides, the inhibition at 0.1 µM in experiment [1] (compound 100 nM) was found to be 69.5%. In experiment [1] (compound 1000 nM), the inhibition at 1 µM stood at 84%.

`Cc1c(C(=O)Nc2ccc(Oc3ncnc4[nH]cc(-c5ccccc5)c34)c(F)c2)c(=O)c2cc(OC(F)(F)F)ccc2n1C` [TL4800117, N-(3-fluoro-4-((5-phenyl-7H-pyrrolo[2,3-d]pyrimidin-4-yl)oxy)phenyl)-1,2-dimethyl-4-oxo-6-(trifluoromethoxy)-1,4-dihydroquinoline-3-carboxamide] showed an IC50 at AXL kinase of 75 nM. The “Inhibition rate (%)” value in experiment [1] (compound 10 nM, 0.01 µM) turned out to be 61.5%; in experiment [1] (compound 100 nM, 0.1 µM), 70.2%; in experiment [1] (compound 1000 nM, 1 µM), 74.1%. Also, the inhibition at 0.01 µM in experiment [1] (compound 10 nM) worked out at 59.5%. Also, the inhibition at 0.1 µM in experiment [1] (compound 100 nM) worked out at 76.3%. In experiment [1] (compound 1000 nM), the inhibition at 1 µM was 83.8%.

Turning to `CCc1ccc2c(c1)c(=O)c(C(=O)Nc1ccc(Oc3ncnc4[nH]cc(-c5ccccc5)c34)c(F)c1)c(CC)n2C` [TL4830005, 2,6-diethyl-N-(3-fluoro-4-(5-phenyl-7H-pyrrolo[2,3-d]pyrimidin-4-yloxy)phenyl)-1-methyl-4-oxo-1,4-dihydroquinoline-3-carboxamide], half-maximal inhibition against AXL kinase (IC50) required 23 nM. Besides, the “inhibitory activity on AXL kinase” value at AXL kinase (competitive experiment with ATP, in words) was “strong inhibitory activity”. The “Inhibition rate (%)” value in experiment [1] (compound 10 nM, 0.01 µM) was determined as 49.8%; in experiment [1] (compound 100 nM, 0.1 µM) it was 53.3%; in experiment [1] (compound 1000 nM, 1 µM) it was 59.9%. In experiment [1] (compound 10 nM), the inhibition at 0.01 µM amounted to 55.7%. In experiment [1] (compound 100 nM), the inhibition at 0.1 µM worked out at 50.1%. Further, the inhibition at 1 µM in experiment [1] (compound 1000 nM) amounted to 71.4%.

The compound `CCc1ccc2c(c1)c(=O)c(C(=O)Nc1ccc(Oc3ncnc4[nH]cc(-c5ccccc5)c34)c(C)c1)c(C)n2C` [TL4830016, 6-ethyl-12-dimethyl-N-(3-methyl-4-(5-phenyl-7H-pyrrolo[2,3-d]pyrimidin-4-yloxy)phenyl)-4-oxo-1,4-dihydroquinoline-3-carboxamide] registered an IC50 on AXL kinase of 1120 nM. Besides, the “Inhibition rate (%)” value was determined as 66.5% in experiment [1] (compound 10 nM, 0.01 µM); 66.1% in experiment [1] (compound 100 nM, 0.1 µM); 70.1% in experiment [1] (compound 1000 nM, 1 µM). Also, the inhibition at 0.01 µM in experiment [1] (compound 10 nM) was 50.2%. Besides, the inhibition at 0.1 µM in experiment [1] (compound 100 nM) amounted to 58.3%. Moreover, the inhibition at 1 µM in experiment [1] (compound 1000 nM) is 67.1%.

The compound `COc1cc2ncnc(Oc3ccc(NC(=O)c4cn5c6c(cc(C)cc6c4=O)CCC5)cc3F)c2cc1OC` [TL4830032, N-(4-((6,7-dimethoxyquinazolin-4-yl)oxy)-3-fluorophenyl)-9-methyl-1-oxo-1,5,6,7-tetrahydropyrido[3,2,1-ij]quinoline-2-carboxamide] came in with a 50% inhibitory concentration (IC50) at AXL kinase of 26.5 nM. The “Inhibition rate (%)” value in experiment [1] (compound 10 nM, 0.01 µM) was 62.8%; in experiment [1] (compound 100 nM, 0.1 µM), 56.6%; in experiment [1] (compound 1000 nM, 1 µM), 68.5%. Besides, the inhibition at 0.01 µM in experiment [1] (compound 10 nM) worked out at 63.8%. For the same compound, the inhibition at 0.1 µM in experiment [1] (compound 100 nM) came to 69.8%. For the same compound, the inhibition at 1 µM in experiment [1] (compound 1000 nM) was found to be 72%.

As a reminder, the IC50 is the concentration that inhibits the measured activity by half. The low end stands for inhibition by little substance, the high end for a need for much substance. As a reminder, the inhibition is how much of the control response was suppressed.
